Laboratory results published in patent US11685719B2, “Pyridinone MK2 inhibitors and uses thereof” (Xinthera, Inc., priority 2021, dated 2023).

Tests used:
p38a/MK2 = p38a/MK2 (Homo sapiens (Human), UniProt P49137+Q16539); experiment: biochemical; settings: 10-point 1:3 dilution, top dose 1 μM; 10 μM ATP, 2 h incubation; read-out: p38a/MK2 (1 μM) Enzyme pIC50 (converted)
Procedure, shortened: (§1)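 Recombinant N-terminal GST-tagged MK2 (F46-H400) or PRAK (M1-Q471), expressed in E. coli, were activated by p38. Activity read as phosphorylation of FITC-conjugated HSP27 peptide. IC50 taken as half-maximal inhibition of activation from 10-point 1:3 dilutions, top dose 1 or 10 μM for MK2 and 300 μM for PRAK.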

p38a/PRAK = p38a/PRAK (Homo sapiens (Human), UniProt Q16539); experiment: biochemical; settings: 10-point 1:3 dilution, top dose 300 μM; 10 μM ATP, 2 h incubation; read-out: p38a/PRAK Enzyme pIC50 (converted)
Chain of p38a/PRAK (Q16539 whole entry): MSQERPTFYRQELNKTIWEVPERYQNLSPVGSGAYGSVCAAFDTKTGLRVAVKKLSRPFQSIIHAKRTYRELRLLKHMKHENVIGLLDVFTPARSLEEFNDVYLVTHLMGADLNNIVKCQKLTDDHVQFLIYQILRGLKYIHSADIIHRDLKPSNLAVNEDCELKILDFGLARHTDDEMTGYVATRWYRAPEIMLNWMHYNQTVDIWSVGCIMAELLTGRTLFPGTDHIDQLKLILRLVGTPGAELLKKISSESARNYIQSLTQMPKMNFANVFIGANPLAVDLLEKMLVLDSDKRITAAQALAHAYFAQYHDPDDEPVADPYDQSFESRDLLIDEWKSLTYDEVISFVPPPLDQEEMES
Procedure, shortened: as §1

Chain of p38a/MK2 (Q16539 whole entry): as above
Chain of p38a/MK2 (P49137 46-400): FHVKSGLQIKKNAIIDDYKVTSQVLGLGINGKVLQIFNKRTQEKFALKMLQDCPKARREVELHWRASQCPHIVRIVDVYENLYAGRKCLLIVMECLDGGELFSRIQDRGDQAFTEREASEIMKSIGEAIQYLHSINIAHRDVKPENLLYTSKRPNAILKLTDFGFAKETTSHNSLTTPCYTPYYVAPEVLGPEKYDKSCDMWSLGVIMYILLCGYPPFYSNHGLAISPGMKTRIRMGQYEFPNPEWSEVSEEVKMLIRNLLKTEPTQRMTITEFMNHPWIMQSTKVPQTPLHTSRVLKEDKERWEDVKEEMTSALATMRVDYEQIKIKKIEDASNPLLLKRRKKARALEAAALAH

Row | SMILES | IC50 (p38a/MK2) [nM] | IC50 (p38a/PRAK) [nM]
1 | Cc1cnc(-n2ccc(C)c(C(C)(C)O)c2=O)cc1-n1c(C)cc(OCc2ncc(F)cc2F)c(Cl)c1=O (single isomer, unassigned) [Example 15B, rel-3-chloro-4-[(3,5-difluoropyridin-2-yl)methoxy]-2′-[3-(2-hydroxypropan-2-yl)-4-methyl-2-oxopyridin-1-yl]-5′,6-dimethyl-[1,4′-bipyridin]-2-one] | > 1000 | > 316000
2 | [2H]C([2H])(Oc1cc(C)n(-c2cc(-n3ccnc(C(C)(C)O)c3=O)ncc2C)c(=O)c1Cl)c1ncc(F)cc1F (single isomer, unassigned) [Example 19A, rel-3-chloro-4-((3,5-difluoropyridin-2-yl)methoxy-d2)-2′-(3-(2-hydroxypropan-2-yl)-2-oxopyrazin-1(2H)-yl)-5′,6-dimethyl-2H-[1,4′-bipyridin]-2-one] | 1 | 1580

Second part, the molecule after the results:

Row | IC50 (p38a/MK2) [nM] | IC50 (p38a/PRAK) [nM] | SMILES
3 | 631 | > 316000 | Cc1cnc(-n2cccc(C(C)(C)O)c2=O)cc1-n1c(C)nc(OCc2ncc(F)cc2F)c(Cl)c1=O (single isomer, unassigned) [Example 25B, rel-4′-{5-chloro-4-[(3,5-difluoropyridin-2-yl)methoxy]-2-methyl-6-oxopyrimidin-1-yl}-3-(2-hydroxypropan-2-yl)-5′-methyl-[1,2′-bipyridin]-2-one]
4 | 1.26 | 5010 | [2H]C([2H])(Oc1cc(C)n(-c2cc(-n3cccc(C(C)(C)O)c3=O)ncc2C)c(=O)c1Cl)c1ncc(Cl)cc1F (single isomer, unassigned) [Example 21A, rel-3-chloro-4-[(5-chloro-3-fluoropyridin-2-yl)(2H2)methoxy]-2′-[3-(2-hydroxypropan-2-yl)-2-oxopyridin-1-yl]-5′,6-dimethyl-[1,4′-bipyridin]-2-one]
5 | > 100 | > 316000 | Cc1cnc(-n2ccn(C(C)(C)CO)c2=O)cc1-n1c(C)cc(OCc2ncc(F)cc2F)c(Cl)c1=O (single isomer, unassigned) [Example 27A, rel-3-chloro-4-[(3,5-difluoropyridin-2-yl)methoxy]-2′-[3-(1-hydroxy-2-methylpropan-2-yl)-2-oxoimidazol-1-yl]-5′,6-dimethyl-[1,4′-bipyridin]-2-one]
